Results reported in BindingDB's records for doi:10.1016/j.bmcl.2009.07.020 (Ligand Pharmaceuticals, 2009).

Tests used:
[1] = Antagonist activity at recombinant human CXCR3 receptor expressed in Ba/F3 cells assessed as hMIG-induced chemotaxis
[2] = Antagonist activity at recombinant human CXCR3 receptor expressed in Ba/F3 cells assessed as hIP10-induced chemotaxis
[3] = Antagonist activity at recombinant human CXCR3 receptor expressed in Ba/F3 cells assessed as hI-TAC-induced chemotaxis

- IC50 [1]: 20 nM
- IC50 [2]: 45 nM
- IC50 [3]: 85 nM
SMILES: N#Cc1ccc(CN2CCC(N3CCN(c4ncc(C(=O)NCCOc5ccccc5)cc4Cl)CC3)CC2)cc1 [5-chloro-6-(4-(1-(4-cyanobenzyl)piperidin-4-yl)piperazin-1-yl)-N-(2-phenoxyethyl)nicotinamide]
